# Laboratory results reported in ChEMBL document CHEMBL4000164, “(+)-and (-)-Phenazocine enantiomers: Evaluation of their dual opioid agonist/σ1 antagonist properties and antinociceptive effects” (Eur J Med Chem, 2017).
# pKi: −log10 of the molar value. Activity calls are given as the source filed them. The rule behind the calls is not given here.
# Tests used:
# Mus musculus [1] = test: Analgesic activity in mouse administered subcutaneously by hot plate assay; details: sc
# Mus musculus [2] = test: Antinociceptive activity in sc dosed CD-1 mouse mechanical stimulus-induced nociception model assessed as struggle response latency administered 30 mins prior to test by paw pressure test; format: functional, organism-based
# Mus musculus [3] = test: Antinociceptive activity in CD-1 mouse mechanical stimulus-induced nociception model assessed as struggle response latency at 8 mg/kg, sc administered 30 mins prior to test in presence of centrally penetrant opioid antagonist Nx by paw pressure test; format: functional, organism-based
# Mus musculus [4] = test: Antinociceptive activity in CD-1 mouse mechanical stimulus-induced nociception model assessed as struggle response latency at 8 mg/kg, sc administered 30 mins prior to test in presence of peripherally restricted opioid antagonist Nx-M by paw pressure test; format: functional, organism-based
# Mus musculus [5] = test: Antinociceptive activity in CD-1 mouse mechanical stimulus-induced nociception model assessed as struggle response latency at 8 mg/kg, sc administered 30 mins prior to test in presence of sigma1 receptor agonist PRE-084 by paw pressure test; format: functional, organism-based
# [6] = target: Kappa-type opioid receptor (Homo sapiens, UniProt P41145); test: Binding affinity to kappa opioid receptor (unknown origin)
# Kappa-type opioid receptor (Homo sapiens, UniProt P41145), sequence (P41145 whole entry): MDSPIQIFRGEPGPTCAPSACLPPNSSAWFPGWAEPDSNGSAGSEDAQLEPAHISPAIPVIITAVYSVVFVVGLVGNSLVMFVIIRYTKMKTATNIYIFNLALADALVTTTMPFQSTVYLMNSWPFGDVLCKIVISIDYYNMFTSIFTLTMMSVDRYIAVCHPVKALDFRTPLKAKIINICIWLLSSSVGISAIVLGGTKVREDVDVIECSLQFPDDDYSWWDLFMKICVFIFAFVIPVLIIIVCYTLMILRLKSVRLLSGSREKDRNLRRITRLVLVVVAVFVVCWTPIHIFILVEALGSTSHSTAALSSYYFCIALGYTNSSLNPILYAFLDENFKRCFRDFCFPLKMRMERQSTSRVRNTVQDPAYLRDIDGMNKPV
# [7] = target: Delta-type opioid receptor (Homo sapiens, UniProt P41143); test: Binding affinity to delta opioid receptor (unknown origin)
# Delta-type opioid receptor (Homo sapiens, UniProt P41143), sequence (P41143 whole entry): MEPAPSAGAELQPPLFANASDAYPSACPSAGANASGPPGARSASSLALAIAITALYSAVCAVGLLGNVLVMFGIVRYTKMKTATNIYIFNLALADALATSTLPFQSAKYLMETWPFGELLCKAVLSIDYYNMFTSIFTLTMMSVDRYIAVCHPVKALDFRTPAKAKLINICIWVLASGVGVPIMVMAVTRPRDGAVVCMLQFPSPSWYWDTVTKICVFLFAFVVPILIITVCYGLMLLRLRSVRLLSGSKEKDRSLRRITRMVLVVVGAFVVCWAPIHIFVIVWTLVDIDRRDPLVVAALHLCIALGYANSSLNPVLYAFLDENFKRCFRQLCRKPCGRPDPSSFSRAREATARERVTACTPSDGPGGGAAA
# [8] = target: Delta-type opioid receptor (Rattus norvegicus, UniProt P33533); test: Displacement of [3H]DPDPE from delta opioid receptor in Sprague-Dawley rat brain membranes by liquid scintillation counter method; format: cell membranes, Membrane
# Delta-type opioid receptor (Rattus norvegicus, UniProt P33533), sequence (P33533 whole entry): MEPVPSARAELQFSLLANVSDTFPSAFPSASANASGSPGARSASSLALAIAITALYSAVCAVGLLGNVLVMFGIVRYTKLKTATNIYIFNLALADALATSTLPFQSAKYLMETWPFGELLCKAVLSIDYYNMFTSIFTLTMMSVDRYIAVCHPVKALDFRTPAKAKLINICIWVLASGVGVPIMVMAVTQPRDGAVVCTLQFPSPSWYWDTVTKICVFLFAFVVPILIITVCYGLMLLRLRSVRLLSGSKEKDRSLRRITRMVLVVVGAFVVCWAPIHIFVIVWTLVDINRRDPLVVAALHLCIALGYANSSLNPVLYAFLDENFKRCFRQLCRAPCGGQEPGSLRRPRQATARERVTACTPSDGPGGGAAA
# [9] = target: T1, Kappa-type opioid receptor (Cavia porcellus, UniProt P41144); test: Displacement of [3H]U69,593 from kappa opioid receptor in guinea pig brain membranes by liquid scintillation counter method; format: cell membranes, Membrane
# T1 sequence (P41144 whole entry): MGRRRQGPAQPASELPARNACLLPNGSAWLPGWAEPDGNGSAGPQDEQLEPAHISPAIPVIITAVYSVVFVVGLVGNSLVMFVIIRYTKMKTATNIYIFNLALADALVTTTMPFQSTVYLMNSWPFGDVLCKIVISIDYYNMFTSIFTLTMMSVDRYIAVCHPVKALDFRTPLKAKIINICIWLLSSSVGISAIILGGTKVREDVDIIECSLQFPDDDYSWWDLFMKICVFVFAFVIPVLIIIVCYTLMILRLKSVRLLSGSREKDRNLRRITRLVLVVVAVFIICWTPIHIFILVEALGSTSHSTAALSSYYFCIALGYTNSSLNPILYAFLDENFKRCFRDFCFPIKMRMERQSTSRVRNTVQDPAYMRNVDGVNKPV
# Mus musculus [10] = test: Antinociceptive activity in CD-1 mouse mechanical stimulus-induced nociception model assessed as struggle response latency at 4 mg/kg, sc administered 30 mins prior to test in presence of centrally penetrant opioid antagonist Nx by paw pressure test; format: functional, organism-based
# Mus musculus [11] = test: Antinociceptive activity in CD-1 mouse mechanical stimulus-induced nociception model assessed as struggle response latency at 4 mg/kg, sc administered 30 mins prior to test in presence of peripherally restricted opioid antagonist Nx-M by paw pressure test; format: functional, organism-based
# Mus musculus [12] = test: Antinociceptive activity in CD-1 mouse mechanical stimulus-induced nociception model assessed as struggle response latency at 4 mg/kg, sc administered 30 mins prior to test in presence of sigma1 receptor agonist PRE-084 by paw pressure test; format: functional, organism-based
# Mu-type opioid receptor [13] = target: Mu-type opioid receptor (Rattus norvegicus, UniProt P33535); test: Displacement of [3H] DAMGO from mu opioid receptor in Sprague-Dawley rat whole brain membranes after 2.5 hrs by liquid scintillation method; parameters: species or system Membrane
# Mu-type opioid receptor (Rattus norvegicus, UniProt P33535), sequence (P33535 whole entry): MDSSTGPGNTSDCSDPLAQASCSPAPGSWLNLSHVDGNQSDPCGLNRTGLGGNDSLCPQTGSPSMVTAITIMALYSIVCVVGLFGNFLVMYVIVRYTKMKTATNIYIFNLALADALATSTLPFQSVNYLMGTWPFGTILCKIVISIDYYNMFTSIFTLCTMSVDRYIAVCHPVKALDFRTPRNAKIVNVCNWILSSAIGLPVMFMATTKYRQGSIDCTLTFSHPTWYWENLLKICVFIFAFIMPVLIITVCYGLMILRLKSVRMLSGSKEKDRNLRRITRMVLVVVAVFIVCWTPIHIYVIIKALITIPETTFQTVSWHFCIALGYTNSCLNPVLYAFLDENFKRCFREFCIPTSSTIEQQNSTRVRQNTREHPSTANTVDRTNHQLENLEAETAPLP
# Mus musculus [14] = test: Antinociceptive activity in CD-1 mouse mechanical stimulus-induced nociception model assessed as struggle response latency at 2 to 8 mg/kg, sc administered 30 mins prior to test by paw pressure test; format: functional, organism-based
# [15] = target: Sigma non-opioid intracellular receptor 1 (Mus musculus, UniProt O55242); test: Displacement of [3H]-(+)-pentazocin from sigma1 receptor in mouse brain P2 membranes after 240 mins by liquid scintillation counting method; format: cell membranes
# Sigma non-opioid intracellular receptor 1, sequence (O55242 whole entry): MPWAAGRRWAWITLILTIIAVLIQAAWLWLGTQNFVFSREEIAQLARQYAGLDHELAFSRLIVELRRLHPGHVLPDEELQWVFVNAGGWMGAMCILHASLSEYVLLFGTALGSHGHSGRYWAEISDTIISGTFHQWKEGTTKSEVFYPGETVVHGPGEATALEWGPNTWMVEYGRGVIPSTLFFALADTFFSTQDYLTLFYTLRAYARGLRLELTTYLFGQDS
# Mu-type opioid receptor [16] = target: Mu-type opioid receptor (Cavia porcellus, UniProt P97266); test: Displacement of [3H]-[D-Ala2,MePhe4Gly-ol5]enkephalin from mu opioid receptor in guinea pig brain membranes after 40 mins; format: cell membranes, Membrane
# Mu-type opioid receptor (Cavia porcellus, UniProt P97266), sequence (P97266 whole entry): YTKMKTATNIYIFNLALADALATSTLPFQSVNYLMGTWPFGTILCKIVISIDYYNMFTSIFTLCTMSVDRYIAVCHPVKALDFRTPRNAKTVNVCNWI
# [17] = Displacement of [3H]-[D-Ala2,D-Leu5]enkephalin from delta opioid receptor in guinea pig brain membranes after 40 mins; format: cell membranes, Cavia porcellus, Membrane
# [18] = target: T1, Kappa-type opioid receptor; test: Displacement of [3H]-Ethylketazocine from kappa opioid receptor in guinea pig brain membranes after 40 mins; format: cell membranes, Membrane
# Mus musculus [19] = test: Antinociceptive activity in CD-1 mouse mechanical stimulus-induced nociception model assessed as struggle response latency at 0.125 to 0.5 mg/kg, sc administered 30 mins prior to test by paw pressure test; format: functional, organism-based
# Mus musculus [20] = test: Antinociceptive activity in CD-1 mouse mechanical stimulus-induced nociception model assessed as struggle response latency at 0.25 mg/kg, sc administered 30 mins prior to test in presence of centrally penetrant opioid antagonist Nx by paw pressure test; format: functional, organism-based
# Mus musculus [21] = test: Antinociceptive activity in CD-1 mouse mechanical stimulus-induced nociception model assessed as struggle response latency at 0.25 mg/kg, sc administered 30 mins prior to test in presence of peripherally restricted opioid antagonist Nx-M by paw pressure test; format: functional, organism-based
# Mus musculus [22] = test: Antinociceptive activity in CD-1 mouse mechanical stimulus-induced nociception model assessed as struggle response latency at 0.25 mg/kg, sc administered 30 mins prior to test in presence of sigma1 receptor agonist PRE-084 by paw pressure test; format: functional, organism-based
# Mus musculus [23] = test: Antinociceptive activity in CD-1 mouse mechanical stimulus-induced nociception model assessed as struggle response latency time at 0.5 mg/kg, sc administered 30 mins prior to test by paw pressure test; format: functional
# Mus musculus [24] = test: Antinociceptive activity in CD-1 mouse mechanical stimulus-induced nociception model assessed as struggle response latency time at 0.5 mg/kg, sc administered 30 mins prior to test in presence of centrally penetrant opioid antagonist Nx by paw pressure test; format: functional, organism-based
# Mus musculus [25] = test: Antinociceptive activity in CD-1 mouse mechanical stimulus-induced nociception model assessed as struggle response latency time at 0.5 mg/kg, sc administered 30 mins prior to test in presence of peripherally restricted opioid antagonist Nx-M by paw pressure test; format: functional, organism-based
# Mus musculus [26] = test: Antinociceptive activity in CD-1 mouse mechanical stimulus-induced nociception model assessed as struggle response latency time at 0.5 mg/kg, sc administered 30 mins prior to test in presence of sigma1 receptor agonist PRE-084 by paw pressure test; format: functional, organism-based
structure (smiles),measurement,setting,value
CN1CC[C@]23c4c5ccc(O)c4O[C@H]2[C@@H](O)C=C[C@H]3[C@H]1C5 [MORPHINE],ED50,Mus musculus [1],6.7 mg/kg
same,Activity,Mus musculus [2],Dose-dependent effect
same,Activity,Mus musculus [3],inactive
same,Activity,Mus musculus [4],Active
same,Activity,Mus musculus [5],Active
O=C(OCCN1CCOCC1)C1(c2ccccc2)CCCCC1,pKi,[6],< 5.40
same,pKi,[7],< 5.40
C[C@@H]1[C@@H]2Cc3ccc(O)cc3[C@@]1(C)CCN2CCc1ccccc1,pKi,[8],6.91
same,pKi,[9],6.76
same,Activity,Mus musculus [10],inactive
same,Activity,Mus musculus [11],inactive
same,Activity,Mus musculus [12],inactive
same,pKi,Mu-type opioid receptor [13],8.41
same,Activity,Mus musculus [14],Active
C=CC[N+]1(C)CC[C@]23c4c5ccc(O)c4O[C@H]2C(=O)CC[C@@]3(O)[C@H]1C5 (some centres not stated) [NALOXONE METHIODIDE],pKi,[15],< 6.00
same,pKi,Mu-type opioid receptor [16],7.74
same,pKi,[17],6.54
same,pKi,[18],6.73
C[C@H]1[C@H]2Cc3ccc(O)cc3[C@]1(C)CCN2CCc1ccccc1,Activity,Mus musculus [19],Active
same,Activity,Mus musculus [20],inactive
same,Activity,Mus musculus [21],inactive
same,Activity,Mus musculus [22],inactive
same,Time,Mus musculus [23],20 s
same,Activity,Mus musculus [24],inactive
same,pKi,Mu-type opioid receptor [13],7.21
same,Activity,Mus musculus [25],inactive
same,Activity,Mus musculus [26],inactive
